Read-outs that look alike come from different tables or passages of the source.
How the values were obtained:
Type in all cases: cell-based, Phaffia rhodozyma
P. rhodozyma [1] = experiment: Morphological selection on agent-containing medium, colonies assayed for pigment
Source text: More specifically, the inventors have discovered that by subjecting a naturally occurring or mutated strain of P. rhodozyma to growth in the presence of a metabolic pathway inhibitor, particularly a main respiratory pathway inhibitor, in the presence of an influence such as an agent or environmental condition which triggers a secondary respiratory pathway, or morphological selection using a selecting agent, and particularly an antibiotic, a cytochrome B inhibitor, or a terpenoid synthetic pathway inhibitor as a selecting agent, a directed and specific selection of highly pigmented P. rhodazyma takes place. For example, plating of the pink yeast, P. rhodozyma, to agar containing an antibiotic, a cytochrome B inhibitor, or a terpenoid synthetic pathway inhibitor gave rise to colonies of unusual morphology characterized by a nonpigmented lower smooth surface that developed highly pigmented vertical papillae after 1 to 2 months.
The sequence of mutations and selections with which the highest astaxanthin yielding strains to date have been produced is shown in FIG. 2. With reference to FIG. 2, the naturally occurring parent 67-385, obtained from the American Type Culture Collection ATCC No. 24230, was assayed as containing 200-600 μg/g dry weight of yeast in 6 day growth. 67-385 was subjected to antimycin selection, and higher pigmented progeny, referred to as 10′-887J0 were obtained. The first mutant papillus dissected from the basal colony contained approx. 700 μg total carotenoid/g yeast compared to the parental strain which had 300 to 400 μg/g. 10′-887J0 was assayed to have an astaxanthin content of 960 μg/g dry weight of yeast in 6 day growth. 10′-887J0 was replated to YM agar containing 50 μM antimycin and second generation antimycin colonies were selected. One of these produced 1200 μg/g and another produced 1450 μg/g. […]
After harvest from 30 ml growth medium, the cells are washed in water and resuspended in 30 ml of water. The optical density is measured to determine growth. […]

P. rhodozyma [2] = experiment: Inhibitors incorporated into yeast malt extract medium: killing, growth and colony colour; settings: for influence on pigmentation of P. rhodozyma: YM plates or liquid growth media; for killing of P. rhodozyma: incorporated into yeast malt extract medium agar
Source text: The inventors also tried treating P. rhodozyma with several inhibitors of electron transport including thenoyltrifluoroacetone (TTFA), antimycin A, and sodium cyanide.

P. rhodozyma [3] = tested on: P. rhodozyma
Source text: One of the selected progeny (IGI-887J0; see FIG. 2 and accompanying text) was characterized physiologically.
Sensitivities of the mutants to various respiratory inhibitors including antimycin A, theonyltrifluoroacetine, sodium azide, hydrogen peroxide and sodium cyanide were examined. These inhibitors affect different regions of the respiratory chain.

P. rhodozyma [4] = experiment: Inhibitors incorporated into yeast malt extract medium: killing, growth and colony colour; settings: nicotine 1 mM, imidazole 4 mM, 2-methylimidazole 1 mM, morpholine 10 mM

Compound: tunicamycin
- pigment of resistant mutant (P. rhodozyma [1]; 8 μg/ml tunicamycin resistant mutant of ATCC 24202, control 270 μg/g): 610 µg/g

Compound: c1c[nH]cn1 [imidazole]
- color of the colonies (P. rhodozyma [2]): did visually change the color of the colonies
- growth (P. rhodozyma [2]): did not impair growth

Compound: C[C@@]1(O)CCOC(=O)C1 [mevalonic acid lactone]
- pigment of resistant mutant (P. rhodozyma [1]; 25 mM mevalonic acid lactone resistant mutant of NTG-mutagenized ATCC 24202, control 275 μg/g): 540 µg/g

Compound: C=C(C)[C@H]1Cc2c(ccc3c2O[C@@H]2COc4cc(OC)c(OC)cc4[C@@H]2C3=O)O1 [rotenone]
- influence on pigmentation of P. rhodozyma (P. rhodozyma [2]): do not seem to significantly influence pigmentation

Compound: [N-]=[N+]=[N-].[Na+] [azide, sodium azide]
- sensitivity of mutant compared with natural isolate (P. rhodozyma [3]): did not differ
- sensitivity of the antimycin mutants compared with parental strain (P. rhodozyma [3]): did not differ in sensitivity
- killing of naturally occurring P. rhodozyma by inhibitors of electron transport (P. rhodozyma [2]): relatively insensitive

Compound: Cc1ncc[nH]1 [2-methylimidazole]
- color of the colonies (P. rhodozyma [4]): did visually change the color of the colonies
- growth (P. rhodozyma [4]): did not impair growth

Compound: Clc1ccc(COC(Cn2ccnc2)c2ccc(Cl)cc2Cl)c(Cl)c1 (centres unmarked) [miconazole]
- killing of P. rhodozyma (P. rhodozyma [2]): significant killing

Compound: CN1CCCC1c1cccnc1 (centres unmarked) [nicotine]
- color of the colonies (P. rhodozyma [4]): did visually change the color of the colonies
- growth (P. rhodozyma [4]): did not impair growth

Compound: C[C@@H]1[C@H](O)[C@@H](C)/C=C/C=C/CC/C=C/C=C/C=C/C=C/C(O[C@H]2O[C@H](C)[C@@H](O)[C@H](N)[C@@H]2O)CC2O[C@](O)(CC(O)C(O)CCC(O)CC(O)CC(O)CC(=O)O[C@H]1C)CC(O)C2C(=O)O (some centres unmarked) [nystatin]
- pigment of highest mutant (P. rhodozyma [1]; mutant of ATCC 24202 from 3 and 5 μg/ml nystatin, control 270 μg/g): 400 µg/g

Compound: OO [hydrogen peroxide]
- sensitivity of mutant compared with natural isolate (P. rhodozyma [3]): more sensitive to killing
- sensitivity of the antimycin mutants compared with parental strain (P. rhodozyma [3]): quite sensitive

Compound: CC(=O)N1CCN(c2ccc(OCC3COC(Cn4ccnc4)(c4ccc(Cl)cc4Cl)O3)cc2)CC1 (centres unmarked) [ketoconazole]
- killing of P. rhodozyma (P. rhodozyma [2]): significant killing

Compound: C1COCCN1 [morpholine]
- color of the colonies (P. rhodozyma [2]): did visually change the color of the colonies
- growth (P. rhodozyma [2]): did not impair growth

Compound: O=C(CC(=O)C(F)(F)F)c1cccs1 [TTFA, thenoyltrifluoroacetone]
- sensitivity of the antimycin mutants compared with parental strain (P. rhodozyma [3]; antimycin-isolated mutants): quite sensitive
- sensitivity of mutant compared with natural isolate (P. rhodozyma [3]; strain IGI-887J0): increased sensitivities
- influence on pigmentation of P. rhodozyma (P. rhodozyma [2]): do not seem to significantly influence pigmentation
- killing of naturally occurring P. rhodozyma by inhibitors of electron transport (P. rhodozyma [2]; naturally occurring P. rhodozyma): substantially killed by low concentrations

Source: patent publication US7723066B1, “Processes for in vivo production of astaxanthin and phaffia rhodozyma yeast of enhanced astaxanthin content” (Igene Biotechnology, Inc., priority 1988, dated 2010)
